This assay concerns type II alveolar epithelial cells. The experiment in a line: Three-dimensional subculture of type II alveolar epithelial cells (AT2-P0 to AT2-P1) in medium for Step 5 with additives, SFTPC-GFP reporter cells. The conditions noted are these: for percentage of type II alveolar epithelial cells maintained of the whole including fibroblasts used for coculture / percentage of type II alveolar epithelial cells maintained relative to the epithelial cell component: AT2-P1, medium for Step 5 plus additive (300 ng/ml WIF, 100 ng/ml IGF2, 10 ng/ml EGF, 20 ng/ml NRG1 β, 3 μM CHIR99021); for percentage of type II alveolar epithelial cells maintained of the whole including fibroblasts used for coculture: control 9.4%; for percentage of type II alveolar epithelial cells maintained relative to the epithelial cell component: control 48.4%; for maintenance of type II alveolar epithelial cells compared with medium supplemented with EGF, NRG1β, CHIR99021: WIF1 300 ng/ml or IGF2 100 ng/ml vs EGF 10 ng/ml, NRG1β 20 ng/ml, CHIR99021 3 μM; for maintenance of type II alveolar epithelial cells in subculture (FIG. 17): medium for Step 5 supplemented with WIF1 (300 ng/ml) or IGF2 (100 ng/ml). Format: cell-based, human. How it is done: On Day 35 of type II alveolar epithelial cell induction in Example 1 (i.e., upon completion of Step 5), the cell mass composed of fibroblasts and spheroids subjected to three-dimensional coculture was removed from the Cell Culture Inserts. The removed cell mass was cut into small pieces of approximately 1 mm with the use of a clean surgical knife, the cells were recovered with the addition of PBS, and centrifugation was carried out at 900 rpm for 5 minutes to remove the supernatant. 0.1% Trypsin/EDTA was added to the precipitate and incubation was then carried out at 37° C. for 15 minutes while adequately repeating pipetting.
Subsequently, DMEM supplemented with 2% FBS was added to neutralize trypsin, followed by centrifugation at 4° C. and 900 rpm for 7 minutes. The supernatant was suction-removed, 1% BSA/PBS was added to the remaining cell pellet, and the resultant was centrifuged again at 4° C. and 900 rpm for 5 minutes. The cell pellet was suspended in 1% BSA/PBS, the mouse anti-human Ep-CAM antibody (Santa Cruz) was added thereto, and the reaction was allowed to proceed at 4° C. for 20 minutes.
Subsequently, the cells were washed 2 times with 1% BSA/PBS, the ALEXA FLUOR® 647-labeled anti-mouse antibody (Life Technologies) was added thereto, and the reaction was allowed to proceed at 4° C. for 20 minutes. After the reaction product was washed 2 times with 1% BSA/PBS, propidium iodide was added in the end, and SFTPC-GFP-positive cells were isolated via FACS with the use of BD FACSAria® II or Aria® III (BD Biosciences). The isolated cells were used as the type II alveolar epithelial cells (AT2-P0).
When type II alveolar epithelial cells were to be subcultured, the type II alveolar epithelial cells were mixed with human fetal lung fibroblasts immediately after isolation, or cryopreserved type II alveolar epithelial cells were mixed with human fetal lung fibroblasts at a ratio of 1:50, the cell suspension of the medium for Step 5 comprising the cells at a cell density of 2.5×10^6 cells/ml and Y-27632 at the final concentration of 10 μM was mixed with MATRIGEL® (Corning) at a ratio of 1:1 at a low temperature, the resultant was immediately added to the upper layer of the Cell Culture Inserts, and the medium for Step 5 was added to the lower layer. The amount to be added to the upper layer of the 12-well plate Cell Culture Inserts is preferably 200 to 400 μL and the amount to be added to the lower layer thereof is preferably 1 ml.
On the first 2 days after the subculture, Y-27632 was added to the medium for Step 5 to the final concentration of 10 μM. Thereafter, the medium for Step 5 of the lower layer was selectively exchanged with another medium every other day. The type II alveolar epithelial cells were isolated 14 days after the initiation of culture, and culture was continued by repeating the three-dimensional coculture with the human fetal lung fibroblasts. As a subculture goes on to the following generation, the cells were designated as AT2-P1, AT2-P2. . . .

`Cc1c[nH]c(-c2cnc(NCCNc3ccc(C#N)cn3)nc2-c2ccc(Cl)cc2Cl)n1` [CHIR99021, 6-[2-[4-(2,4-dichlorophenyl)-5-(4-methyl-1H-imidazol-2-yl)pyrimidin-2-ylamino]-ethylamino]pyridine-3-carbonitrile, reference compound]: the “percentage of type II alveolar epithelial cells maintained of the whole including fibroblasts used for coculture” value (from here on “percentage … for coculture”) was 0.5% and the “percentage of type II alveolar epithelial cells maintained relative to the epithelial cell component” value stood at 23.8%.

As for EGF: EGF (Wako), medium additive, the “percentage … for coculture” value came out at 1.2% and the “percentage of type II alveolar epithelial cells maintained relative to the epithelial cell component” value is 5.3%.

For “IGF2: protein encoded by the polynucleotide shown in NCBI Accession Number NM_000612 (R&D Systems)”, the “percentage … for coculture” value is 16.6%; the “percentage of type II alveolar epithelial cells maintained relative to the epithelial cell component” value is 58.0%; the “maintenance of type II alveolar epithelial cells compared with medium supplemented with EGF, NRG1β, CHIR99021” value is listed as “maintained with higher efficiency”; the “maintenance of type II alveolar epithelial cells in subculture (FIG. 17)” value is “efficiently maintained”.

On to “WIF1: WNT signal inhibitor; protein encoded by the polynucleotide shown in NCBI Accession Number NM_007191 (R&D Systems)”, for which the “percentage … for coculture” value stood at 20.2%; the “percentage of type II alveolar epithelial cells maintained relative to the epithelial cell component” value amounted to 54.4%; the “maintenance of type II alveolar epithelial cells compared with medium supplemented with EGF, NRG1β, CHIR99021” value is “maintained with higher efficiency”; the “maintenance of type II alveolar epithelial cells in subculture (FIG. 17)” value is “efficiently maintained”.

The record behind these values is patent publication US11299712B2, “Method for inducing differentiation of alveolar epithelial cells” (KYOTO UNIVERSITY, priority 2015, dated 2022).
